For test [1], the target named is T1, ROMK (Kir1.1) channel (Homo sapiens, UniProt P48048).
T1 sequence (P48048 1-391): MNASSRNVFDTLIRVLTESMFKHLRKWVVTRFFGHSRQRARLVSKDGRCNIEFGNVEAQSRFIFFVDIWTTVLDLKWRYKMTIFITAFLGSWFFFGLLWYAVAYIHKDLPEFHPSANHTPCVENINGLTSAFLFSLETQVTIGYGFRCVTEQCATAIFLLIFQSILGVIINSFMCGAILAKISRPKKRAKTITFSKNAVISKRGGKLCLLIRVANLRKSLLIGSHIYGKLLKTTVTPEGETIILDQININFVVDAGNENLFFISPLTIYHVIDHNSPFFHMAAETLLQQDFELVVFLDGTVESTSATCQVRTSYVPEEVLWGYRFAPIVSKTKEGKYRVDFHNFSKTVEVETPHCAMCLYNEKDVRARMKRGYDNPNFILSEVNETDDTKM
Put plainly: Thallium Flux Assay. The test is classed as cell-based. As for the experimental part:
A Thallium Flux Assay was performed on the compounds of the Examples. This assay has been described previously; see, e.g., PCT Published Application WO 2013/062900.

For test [2], the target named is T2, Kir1.1 (ROMK1) (Homo sapiens, UniProt P48048).
T2 construct: expressed in transfected cells
T2 sequence (P48048 1-391): T1 sequence (P48048 1-391)
In words: Electrophysiology Assay (whole cell voltage clamp, IonWorks Quattro). The test is classed as cell-based. Particulars: Chinese hamster ovary cells stably expressing Kir1.1; fractional block at voltage step to 0 mV; 6 min compound incubation. As for the experimental part:
Blocking of Kir1.1 (ROMK1) currents was examined by whole cell voltage clamp (Hamill et. al. Pfluegers Archives 391:85-100 (1981) using the IonWorks Quattro automated electrophysiology platform (Molecular Devices, Sunnyvale, Calif.). Chinese hamster ovary cells stably expressing Kir1.1 channels were maintained in T-75 flasks in cell culture media in a humidified 10% CO2 incubator at 37° C. Prior to an experiment, Kir1.1 expression was induced by overnight incubation with 1 mM sodium butyrate. On the day of the experiment, cells were dissociated with 2.5 mL of Versene (Invitrogen 15040-066), a non-enzymatic cell dissociation reagent, for approximately 6 min at 37° C. and suspended in 10 mL of bath solution containing (in mM): 150 NaCl, 10 KCl, 2.7 CaCl2, 0.5 MgCl2, and 5 HEPES, at pH 7.4. After centrifugation, the cell pellet was resuspended in approximately 4.0 mL of bath solution and placed in the IonWorks instrument. The intracellular solution consisted of (in mM): 80 K gluconate, 40 KCl, 20 KF, 3.2 MgCl2, 3 EGTA, and 5 Hepes, at pH 7.4. Electrical access to the cytoplasm was achieved by perforation in 0.13 mg/mL amphotericin B for 4 min. Amphotericin B (Sigma A-4888) was prepared as a 40 mg/mL solution in DMSO.
Voltage protocols and current recordings were performed using the IonWorks HT software/hardware system. Currents were sampled at 1 kHz. There was no correction for liquid junction potentials. The test pulse, consisting of a 100 ms (millisecond) step to 0 mV (millivolts) from a holding potential of −70 mV, followed by a 100 ms voltage ramp from −70 mV to +70 mV, was applied before and after a 6 min compound incubation period. Test compounds were prepared by diluting DMSO stock solutions into the bath solution at 3× the final concentration and placed in the instrument in 96-well polypropylene plates. Current amplitudes were measured using the IonWorks software. To assess compound potency, the fractional block during the voltage step to 0 mV was calculated in Microsoft Excel (Microsoft, Redmond, Calif.), and dose-response curves were fitted with Igor Pro 4.0 (WaveMetrics, Lake Oswego, Oreg.). Although not required, a control compound is typically included to support that the assay is giving consistent results compared to previous measurements.

Usually IC50 stands for the concentration that inhibits the measured activity by half. Low values mean greater potency, high ones weaker potency.

As for `CC1=C(N2N=CC3(CCN(C[C@@H](O)c4ccc(-n5cnnn5)nc4)CC3)C2=O)COC1=O` [Example 3B, (S)-8-(2-(6-(1H-tetrazol-1-yl)pyridin-3-yl)-2-hydroxyethyl)-2-(4-methyl-5-oxo-2,5-dihydrofuran-3-yl)-2,3,8-triazaspiro[4.5]dec-3-en-1-one], the IC50 in test [1] was 57.1 nM.
The same measure, in the same setting: next, `CC1=C(N2N=CC3(CCN(CC(O)c4ccc(-n5cnnn5)nn4)CC3)C2=O)COC1=O` (single isomer, unassigned) [Example 4A, 8-(2-(6-(1H-tetrazol-1-yl)pyridazin-3-yl)-2-hydroxyethyl)-2-(4-methyl-5-oxo-2,5-dihydrofuran-3-yl)-2,3,8-triazaspiro[4.5]dec-3-en-1-one]: 267 nM.
For `CC1=C(N2N=CC3(CCN(C[C@H](O)c4ccc(-n5cnnn5)nc4)CC3)C2=O)COC1=O` [Example 3A, (R)-8-(2-(6-(1H-tetrazol-1-yl)pyridin-3-yl)-2-hydroxyethyl)-2-(4-methyl-5-oxo-2,5-dihydrofuran-3-yl)-2,3,8-triazaspiro[4.5]dec-3-en-1-one], the half-inhibitory concentration (IC50) in test [1] worked out at 54.9 nM; in test [2], 17 nM.
`CC1=C(N2N=CC3(CCN(CCc4ccc(-n5cnnn5)nn4)CC3)C2=O)COC1=O` [Example 5, 8-(2-(6-(1H-tetrazol-1-yl)pyridazin-3-yl)ethyl)-2-(4-methyl-5-oxo-2,5-dihydrofuran-3-yl)-2,3,8-triazaspiro[4.5]dec-3-en-1-one] showed a half-inhibitory concentration (IC50) in test [1] of 45.8 nM.
For the compound `CC1=C(N2NCC3(CCN(C[C@H](O)c4ccc(-n5cnnn5)nc4)CC3)C2=O)COC1=O` [Example 2A, (R)-8-(2-(6-(1H-tetrazol-1-yl)pyridin-3-yl)-2-hydroxyethyl)-2-(4-methyl-5-oxo-2,5-dihydrofuran-3-yl)-2,3,8-triazaspiro[4.5]decan-1-one], the figures for the IC50 in test [1] and in test [2] were 36.5 nM and 53 nM, respectively.
With `CC1=C(N2NCC3(CCN(C[C@H](O)c4ccc5c(c4C)COC5=O)CC3)C2=O)COC1=O` [Example 1, (R)-8-(2-hydroxy-2-(4-methyl-1-oxo-1,3-dihydroisobenzofuran-5-yl)ethyl)-2-(4-methyl-5-oxo-2,5-dihydrofuran-3-yl)-2,3,8-triazaspiro[4.5]decan-1-one], the values for the IC50 in test [1] and in test [2] were 68.4 nM and 33 nM, respectively.
Consider `CC1=C(N2NCC3(CCN(C[C@@H](O)c4ccc(-n5cnnn5)nc4)CC3)C2=O)COC1=O` [Example 2B, (S)-8-(2-(6-(1H-tetrazol-1-yl)pyridin-3-yl)-2-hydroxyethyl)-2-(4-methyl-5-oxo-2,5-dihydrofuran-3-yl)-2,3,8-triazaspiro[4.5]decan-1-one], for which the IC50 in test [1] amounted to 57.8 nM; in test [2], 33 nM.

The values above are taken from patent US9862720B2, “Inhibitors of the renal outer medullary potassium channel” (Merck Sharp & Dohme Corp., priority 2014, dated 2018).
